Reference: article PMC5624969, “Coupled reactions by coupled enzymes: alcohol to lactone cascade with alcohol dehydrogenase–cyclohexanone monooxygenase fusions” (Applied Microbiology and Biotechnology, 2017)

Assays:
TmCHMO [1] = molecular target: T1, TmCHMO (Thermocrispum municipale, UniProt A0A1L1QK40); test: ThermoFAD, release of FAD on unfolding; assay type: binding; conditions: 10 uM enzyme, +0.5 °C/min
T1 construct: recombinant from E. coli, gene from pBAD-His-Tag-SUMO-TmCHMO
T1 sequence (A0A1L1QK40 1-541): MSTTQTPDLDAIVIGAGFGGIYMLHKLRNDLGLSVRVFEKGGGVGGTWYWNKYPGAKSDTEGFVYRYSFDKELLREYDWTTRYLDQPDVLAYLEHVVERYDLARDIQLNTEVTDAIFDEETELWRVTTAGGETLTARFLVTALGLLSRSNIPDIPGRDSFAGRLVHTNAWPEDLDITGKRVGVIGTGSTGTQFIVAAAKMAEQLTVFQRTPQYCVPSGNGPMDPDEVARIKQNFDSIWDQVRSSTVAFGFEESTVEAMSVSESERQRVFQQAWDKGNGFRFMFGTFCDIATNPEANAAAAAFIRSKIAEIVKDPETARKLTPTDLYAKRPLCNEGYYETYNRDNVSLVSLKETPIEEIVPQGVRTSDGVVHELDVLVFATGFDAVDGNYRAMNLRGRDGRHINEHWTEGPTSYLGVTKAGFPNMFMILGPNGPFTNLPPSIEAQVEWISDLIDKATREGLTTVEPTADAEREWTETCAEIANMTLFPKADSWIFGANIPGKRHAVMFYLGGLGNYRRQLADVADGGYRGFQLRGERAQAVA

TmCHMO [2] = molecular target: T1, TmCHMO; test: inhibition of thioanisole oxidation, NADPH depletion at […] nm; assay type: biochemical; conditions: read-out: K I (estimated)
TmCHMO [3] = molecular target: T1, TmCHMO; test: as above; assay type: biochemical; conditions: read-out: 50% reduction of activity

Question: Which “ThermoFAD, release of FAD on unfolding” value (TmCHMO [1]) does the source give for Cc1cc2nc3c(=O)[nH]c(=O)nc-3n(C[C@H](O)[C@H](O)[C@H](O)COP(=O)(O)OP(=O)(O)OC[C@H]3O[C@@H](n4cnc5c(N)ncnc54)[C@H](O)[C@@H]3O)c2cc1C [FAD] here?
Answer: The value was “the release of the FAD from TmCHMO upon unfolding could be detected”.

Question: Which Ki (TmCHMO [2]) does the source give for OC1CCCCC1 [cyclohexanol] here?
Answer: The Ki was less than 2 mM.

Question: Which IC50 (TmCHMO [3]) does the source give for O=C1CCCCCO1 [ε-caprolactone] here?
Answer: The IC50 was 66 mM.
